Read-outs that look alike come from different tables or passages of the source.
Tests used:
[1] = target: T1, SUMO-activating enzyme (SAE) (Homo sapiens, UniProt Q9UBT2); test: Target engagement: SUMO–subasumstat adduct formation in blood lymphocytes, skin and tumor (flow cytometry, IHC); format: in vivo
T1 construct: from tissue; host or cells: patients' peripheral blood lymphocytes, skin biopsies and tumor biopsies
T1 sequence (Q9UBT2 1-640): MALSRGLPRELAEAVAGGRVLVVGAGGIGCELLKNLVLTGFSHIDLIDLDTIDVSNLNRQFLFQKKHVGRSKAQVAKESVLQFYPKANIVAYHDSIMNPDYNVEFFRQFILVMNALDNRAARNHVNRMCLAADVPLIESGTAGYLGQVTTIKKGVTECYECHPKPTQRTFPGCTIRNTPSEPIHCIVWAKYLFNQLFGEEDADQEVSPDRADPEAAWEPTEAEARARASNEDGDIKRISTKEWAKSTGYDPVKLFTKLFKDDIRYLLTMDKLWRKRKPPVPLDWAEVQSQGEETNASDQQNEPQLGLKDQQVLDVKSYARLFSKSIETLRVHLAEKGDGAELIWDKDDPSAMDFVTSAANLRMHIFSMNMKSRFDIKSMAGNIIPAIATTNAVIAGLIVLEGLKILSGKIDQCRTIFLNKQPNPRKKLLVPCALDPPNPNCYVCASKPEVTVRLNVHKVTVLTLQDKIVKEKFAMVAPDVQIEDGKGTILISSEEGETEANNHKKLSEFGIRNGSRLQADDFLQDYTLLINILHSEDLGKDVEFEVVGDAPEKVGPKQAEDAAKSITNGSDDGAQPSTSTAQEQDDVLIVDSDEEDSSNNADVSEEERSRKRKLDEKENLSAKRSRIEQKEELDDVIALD
T1 sequence (Q9UBE0 1-346 partner): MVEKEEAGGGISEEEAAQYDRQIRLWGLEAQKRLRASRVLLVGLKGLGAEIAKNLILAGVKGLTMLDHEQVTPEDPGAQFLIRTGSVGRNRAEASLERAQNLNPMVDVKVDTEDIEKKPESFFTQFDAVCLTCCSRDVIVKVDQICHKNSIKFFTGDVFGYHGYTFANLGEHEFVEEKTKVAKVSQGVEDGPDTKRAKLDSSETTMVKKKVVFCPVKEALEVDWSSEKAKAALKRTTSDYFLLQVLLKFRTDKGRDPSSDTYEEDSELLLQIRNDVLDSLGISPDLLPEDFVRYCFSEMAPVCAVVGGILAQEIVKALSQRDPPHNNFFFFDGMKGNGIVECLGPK
Method: (§1) Blood samples for subasumstat–SUMO adduct formation and SUMO2/3 inhibition assessments were collected before dose and at 1, 4, and 8 hours after the infusion on C1D1 and C1D8. Blood samples for additional biomarker analyses were collected before dose on C1D1 and C1D8 and at 4, 8, and 24 hours after infusion on C1D1 and C1D8. Skin biopsies (used as surrogate tissue for solid tumors) were collected at screening and on C1D8 at 2 hours (±30 minutes) after end of infusion, and tumor biopsies were collected at screening and cycle 2 day 8 (C2D8; +7 days; whenever possible). In blood samples, a custom flow cytometry assay was utilized for detecting target engagement and SUMOylated protein levels in lymphocytes (including T-, B-, and NK-cell subsets). The assay included a PE-conjugated antibody specifically recognizing the SUMO–subasumstat adduct (MIL-113, anti–cysteinyl-TAK-981, Epitomics; refs. [14], [15], [22]) and an AF488-conjugated antibody recognizing SUMO2/3 conjugates (MBL International, cat. #M114-3, RRID: AB_592769). Peripheral blood cells were lysed/fixed, permeabilized (BD Biosciences), and stained with MIL-113 and M114-3 and with antibodies against CD45, CD3, CD19, CD16/CD56, and CD14. IHC assays for SUMO–subasumstat adduct and SUMO2/3 inhibition in skin biopsies and tumors were performed using MIL-113 and M114-3 antibodies. Activation of the IFNI pathway was assessed in peripheral blood by analysis of gene expression data (PanCancer IO 360 panel by NanoString for phase I and whole-transcriptome RNA sequencing data for phase II). Type I IFN gene signature was computed using geometric mean of the following genes: CCL2, CXCL10, DDX58, IRF7, ISG15, STAT1, and STAT2. These seven IFNI-regulated genes were selected prior to the trial, based on in vitro studies of the effect of subasumstat on human blood from 10 healthy donors analyzed on the NanoString PanCancer IO 360 panel. Plasma chemokines and cytokines were measured using the MesoScale Discovery platform (pro-inflammatory and chemokine panels, BioAgilytix). For assessment of NK- and T-cell activation, cells were suspended in buffer and incubated with the following monoclonal antibodies: APC-H7 mouse anti–human CD45 (BD Biosciences, cat. #560274), APC mouse anti–human CD69 (BD Biosciences, cat. #555533), BV421 mouse anti–human CD56 (BD Biosciences, cat. #562751), mouse anti–human CD16 PerCP-Cy5.5 (BD Biosciences, cat. #338440), BV510 mouse anti–human CD4 (BD Biosciences, cat. #563094), BV605 mouse anti–human CD8 (BD Biosciences, cat. #564116), and Alexa Fluor 700 anti–mouse CD3 antibody (BioLegend, cat. #100215), prior to assessment by flow cytometry using the BD Scientific FACSCanto flow cytometer (RRID: SCR_018055). Tumor PD-L1 expression level was assessed in paired tumor biopsies using the 22C3 PD-L1 IHC assay; combined positive score (CPS) was calculated for baseline and on-treatment tumor samples. The immune landscape in the tumor microenvironment (TME) was assessed using an integrated RNAscope and 27-marker MultiOmyx immunofluorescence panel.

NK cells and T cells = test: NK- and T-cell activation (CD69+ cells) in peripheral blood by flow cytometry; format: in vivo, human
Method: Blood samples for subasumstat–SUMO adduct formation and SUMO2/3 inhibition assessments were collected before dose and at 1, 4, and 8 hours after the infusion on C1D1 and C1D8. Blood samples for additional biomarker analyses were collected before dose on C1D1 and C1D8 and at 4, 8, and 24 hours after infusion on C1D1 and C1D8. Skin biopsies (used as surrogate tissue for solid tumors) were collected at screening and on C1D8 at 2 hours (±30 minutes) after end of infusion, and tumor biopsies were collected at screening and cycle 2 day 8 (C2D8; +7 days; whenever possible). […] Activation of the IFNI pathway was assessed in peripheral blood by analysis of gene expression data (PanCancer IO 360 panel by NanoString for phase I and whole-transcriptome RNA sequencing data for phase II). […] These seven IFNI-regulated genes were selected prior to the trial, based on in vitro studies of the effect of subasumstat on human blood from 10 healthy donors analyzed on the NanoString PanCancer IO 360 panel. Plasma chemokines and cytokines were measured using the MesoScale Discovery platform (pro-inflammatory and chemokine panels, BioAgilytix). […] Tumor PD-L1 expression level was assessed in paired tumor biopsies using the 22C3 PD-L1 IHC assay; combined positive score (CPS) was calculated for baseline and on-treatment tumor samples. […]

[2] = test system: tumor microenvironment (TME); test: Tumor microenvironment in paired tumor biopsies (multiplex immunofluorescence, PD-L1 22C3 IHC CPS); format: in vivo, human
Method: as §1

[3] = Pharmacokinetics after 1-hour intravenous infusion (non-compartmental); format: in vivo, human; settings: for half-life: across all dose levels, read-out: Terminal disposition phase half-life
Method: Subasumstat PK were evaluated after the first dose on C1D1 and cycle 1 day 8 (C1D8). The parameters included maximum observed plasma concentration (Cmax), time to first occurrence of Cmax, area under the plasma concentration–time curve from time 0 to the last measurable concentration (AUC0–t) or from time 0 extrapolated to time infinity (AUC0–∞), terminal disposition phase half-life, total clearance, and volume of distribution at steady state. PK parameters were estimated from concentration–time profiles for the PK analysis set, using non-compartmental methods, with Phoenix WinNonlin (RRID: SCR_024504).

[4] = cervical cancer and melanoma biopsies

Cc1sc(C(=O)c2cncnc2N[C@@H]2C[C@H](COS(N)(=O)=O)[C@@H](O)C2)cc1[C@@H]1NCCc2ccc(Cl)cc21 [subasumstat]
Target engagement in tumor samples ([1]; all evaluated tumor samples, 8 patients 90 mg twice weekly (C2D8), 1 melanoma patient 25 mg twice weekly (C1D8)): robust target engagement | Dose level from which SUMO–subasumstat adduct formation was detected ([1]; peripheral blood lymphocytes, C1D1 and C1D8, phase I): ≥ 10 mg | Time to detection of SUMO–subasumstat adduct after end of infusion ([1]; peripheral blood lymphocytes, doses ≥10 mg): ≤ 1 h | Persistence of target engagement ([1]; peripheral blood lymphocytes, twice weekly and once weekly schedules): at least 8 hours | Dose from which adduct formation was observed in skin biopsies ([1]; skin biopsies 2 hours after the C1D8 dose): ≥ 10 mg | Time of peak CD69+ effect after infusion (NK cells and T cells; C1D1 and C1D8): 24 h | Dose from which percentage of CD69+ NK and T cells increased (NK cells and T cells; peripheral blood, both dose schedules and study phases): ≥ 60 mg | T-cell infiltration in tumor ([2]; CPI-naïve cervical cancer and CPI-exposed melanoma and NSCLC samples): significant CD8^+ and CD4^+ T-cell infiltration | T-cell density in tumor ([2]; biopsies from three patients with MSS colorectal cancer): did not exhibit an increase in T-cell density | Activated CD11C+HLA-DR+ myeloid dendritic cells [2, 4]: increase in density | HLA class I expression on tumor cells [2, 4]: marked increase | T-cell activation (CD69 on CD4+ and CD8+ T cells) in tumor [2, 4]: significant increase in T-cell activation | PD-L1 CPS ([2]; paired tumor samples, C2D8): increased in most paired tumor samples | Regulatory T cells in tumor ([2]; same biopsies): no significant changes | Time of maximum plasma and blood concentrations ([3]; after dose (end of infusion), intravenous, C1D1 and C1D8, phase I): approximately 1 hour | Increase of Cmax, AUC0–t and AUC0–∞ with dose ([3]; dose range 3 to 120 mg, C1D1 and C1D8): approximately dose-proportional | half-life ([3]; human, intravenous, plasma): 3.35 to 9.31 h | clearance ([3]; human, intravenous, stated as lower in blood compared with plasma, matrix of the range not stated explicitly): 38.2 to 76 mL/min | Vd ([3]; human, intravenous, stated as lower in blood compared with plasma, matrix of the range not stated explicitly, read-out: Volume of distribution at steady state): 13.7 to 38.8 L | half-life ([3]; human, whole blood, intravenous, blood): 2.87 to 9.19 h | Accumulation in plasma after multiple administrations ([3]; phase II, 90 mg twice weekly, C1D4, C1D8, C2D1, C2D8 vs C1D1): no apparent accumulation

Source: paper PMC12627933, “A First-In-Human Study of the SUMOylation Inhibitor Subasumstat in Patients with Advanced/Metastatic Solid Tumors or Relapsed/Refractory Hematologic Malignancies” (Cancer Research Communications, 2025)
